Test results: patent US9610292B2, “Uses for 4,17β-dihydroxyandrost-4-ene-3-one” (MaBel GmbH, priority 2006, dated 2017)

Legend:
[1] = tested on: malign breast carcinoma (C. mammae); test: Double blind clinical test, topical cream once a day for 3 months, patients with malign breast carcinoma; type: in vivo, human; details: for Clinical Remission: daily topical cream, 3 months
Method: Double blind clinical tests were conducted with a group of 10 female patients. In this clinical testing, particular attention was paid to hormone receptor statuses of patients' target breast cancer tissue regarding progesterone receptor (PR) and in particular regarding estrogen receptor (ER); The cancers of the patients were assumed to be predominantly androgen receptor (AR) positive. Among this group, six patients had histologically ascertained malign breast carcinoma (C. mammae). […] In a sixth patient, the presence of a malign breast carcinoma was ascertained, but the amount of cancer tissue was too low to determine receptor status.
(§1) All 10 female patients were topically and locally treated using 4-hydroxytestosterone as active agent, by administering of a cream as described in Example 2 locally to target skin portions of the breasts. After continuing daily topical administration once a day during an administration period of 3 months, clinical investigations on therapeutic effects were performed.
The results of the 6 patients having malign breast carcinoma are shown in the following Table 1, together with the receptor status determined for patient nos. 1 to 5.

[2] = tested on: normal or mastopathic breast tissue; test: Double blind clinical test, topical cream, patients with non-malign disease states; type: in vivo, human; details: 4 patients having non-malign disease states, topical administration
Method: as §1

MCF-7 cells = test: Inhibition of MCF-7 cell proliferation (counting of vital cells); type: cell-based, human; details: 10^-7 M, 10^-8 M and 10^-9 M; cell counting after 3, 6 and 9 days; compared with DHT and control
Method: MCF-7 cells were grown in RPMI 1640 medium at 37° C. to a cell number of about 1*10^5 cells/ml. Then, in quadruple identical MCF-7 cell samples, there were added either dihydrotestosterone (DHT) or 4-hydroxytestosterone (4-OHT), to obtain different concentrations thereof, namely 10^−7 M, 10^−8 M or 10^−9 M, and further growth of cells were determined by counting of vital cells. During the course of incubation at 37° C., cell counting were performed after 3, 6 and 9 days. For control, growth of MCF-7 cells were determined without addition of an active agent.
The results on an inhibition of MCF-7 cell proliferation are shown in FIGS. 1A, 1B and 1C for the compound concentrations of 10^−7 M, 10^−8 M and 10^−9 M of either DHT or 4-OHT, respectively, and compared with the control.

## C[C@]12CC[C@H]3[C@@H](CCC4=C(O)C(=O)CC[C@@]43C)[C@@H]1CC[C@@H]2O [4-hydroxytestosterone, 4,17β-dihydroxyandrost-4-ene-3-one]
[1]; Patient # 1, ER 0, PR 0, Her2neu 0
  Clinical Remission: yes
[1]; Patient # 3, ER 0, PR 0, Her2neu 0
  Clinical Remission: yes
[1]; Patient # 6, receptor status unknown
  Clinical Remission: yes
[1]; clinical study overall, including ER negative cancers
  efficacy in shrinking cancerous tissues: excellent efficacy
[2]
  tissue reduction of normal or mastopathic appearing tissues: clear tendency for tissue reduction
MCF-7 cells
  inhibitory effect on MCF-7 cell proliferation: significantly enhanced inhibitory effect
